Read-outs that look alike come from different tables or passages of the source.
How the values were obtained:
Type in all cases: cell-based
[1] = tested on: Pseudomonas aeruginosa (P. aeruginosa—ATCC #9027); assay: Synergy test, microtiter plate high resolution MIC assay, Gram (−) bacteria; conditions: for SI (synergy index, Qa/QA+Qb/QB): <1 synergism, 1 additivity, >1 antagonism; for MIC: Pseudomonas aeruginosa, read-out: MIC of the microbicide acting alone (QA or QB)
Method: (§1) When the sum of Qa/QA and Qb/QB is greater than one, antagonism is indicated. […] The lower the SI, the greater the synergy shown by that particular mixture. The minimum inhibitory concentration (MIC) of a microbicide is the lowest concentration tested under a specific set of conditions that prevents the growth of added microorganisms.
(§2) Synergy tests were conducted using standard microtiter plate assays with media designed for optimal growth of the test microorganism. Minimal salt medium supplemented with 0.2% glucose and 0.1% yeast extract (M9GY medium) was used for testing bacteria; Potato Dextrose Broth (PDB medium) was used for testing yeast and mold. In this method, a wide range of combinations of microbicides was tested by conducting high resolution MIC assays in the presence of various concentrations of MI. High resolution MICs were determined by adding varying amounts of microbicide to one column of a microtitre plate and doing subsequent ten-fold dilutions using an automated liquid handling system to obtain a series of endpoints ranging from 2 ppm to 10,000 ppm active ingredient. […] The bacteria were used at a concentration of about 5×10^6 bacteria per mL and the yeast and mold at 5×10^5 fungi per mL. These microorganisms are representative of natural contaminants in many consumer and industrial applications. […] (yeast and mold) or 30° C. (bacteria).
(§3) In each test, First Component (A) was MI and the Second Component (B) was the other commercial microbicide.

[2] = tested on: Candida albicans (C. albicans—ATCC 10231); assay: Synergy test, microtiter plate high resolution MIC assay, yeast; conditions: for SI (synergy index, Qa/QA+Qb/QB): <1 synergism, 1 additivity, >1 antagonism; for MIC: Candida albicans, read-out: MIC of the microbicide acting alone (QA or QB)
Method: as §1, §2, §3

[3] = tested on: Aspergillus niger (A. niger—ATCC 16404); assay: Synergy test, microtiter plate high resolution MIC assay, mold; conditions: for SI (synergy index, Qa/QA+Qb/QB): <1 synergism, 1 additivity, >1 antagonism; for MIC: Aspergillus niger, read-out: MIC of the microbicide acting alone (QA or QB)
Method: as §1, §2, §3

[4] = tested on: Staphylococcus aureus (S. aureus—ATCC #6538); assay: Synergy test, microtiter plate high resolution MIC assay, Gram (+) bacteria; conditions: for SI (synergy index, Qa/QA+Qb/QB): <1 synergism, 1 additivity, >1 antagonism; for MIC: Staphylococcus aureus
Method: as §1, §2, §3

[5] = ATCC9027, P. aeruginosa, 24 hours, M9GY medium, 30° C.
[6] = ATCC10231, C. albicans, 72 hours, PDB medium, 25° C.
[7] = ATCC16404, 168 h, A. niger, 1 week, PDB medium, 25° C.
[8] = ATCC6538, S. aureus, 72 hours, M9GY medium, 30° C., read-out: MIC of the microbicide acting alone (QA or QB)
[9] = ATCC6538, 72 h, read-out: MIC of the microbicide acting alone (QA or QB), S. aureus, 72 hours, M9GY medium, 30° C.
[10] = ATCC9027, P. aeruginosa, 48 hours, M9GY medium, 30° C.
[11] = ATCC6538, S. aureus, 24 hours, M9GY medium, 30° C., read-out: MIC of the microbicide acting alone (QA or QB)

Compound | SI (synergy index, Qa/QA+Qb/QB) ([1]; P. aeruginosa, 24 hours) | MIC [1, 5] [µg/mL] | SI (synergy index, Qa/QA+Qb/QB) ([2]; C. albicans, 72 hours) | MIC [2, 6] [µg/mL] | SI (synergy index, Qa/QA+Qb/QB) ([3]; A. niger, 1 week) | MIC [3, 7] [µg/mL] | SI (synergy index, Qa/QA+Qb/QB) ([4]; S. aureus, 72 hours) | MIC [4, 8] [µg/mL] | SI (synergy index, Qa/QA+Qb/QB) ([1]; P. aeruginosa, 72 hours) | SI (synergy index, Qa/QA+Qb/QB) ([2]; C. albicans, 48 hours) | also measured
N#CCCC(Br)(C#N)CBr (stereo not shown) [1,2-dibromo-2,4-dicyanobutane] | 1.00 | 800 | 1.00 | 500 | 1.00 | 100 | 1.00 | 1000 | – | – | –
CC1(C)C(=O)N(CO)C(=O)N1CO [1,3-dimethylol-5,5-dimethylhydantoin] | 1.00 | 300 | 1.00 | 3000 | 1.00 | 3000 | 1.00 | 200 | – | – | –
Cn1sccc1=O [2-methyl-3-isothiazolone] | 1.00 | – | 1.00 | – | 1.00 | – | 1.00 | – | 1.00 | 1.00 | SI (synergy index, Qa/QA+Qb/QB) ([1]; P. aeruginosa, 48 hours): 1.00; MIC ([1]; ATCC9027, 24 h): 15 µg/mL; MIC ([1]; ATCC9027, 48 h): 20 µg/mL; MIC ([1]; ATCC9027, 72 h): 20 µg/mL; MIC ([2]; ATCC10231, 48 h): 200 µg/mL; MIC ([2]; ATCC10231, 72 h): 200 µg/mL; SI (synergy index, Qa/QA+Qb/QB) ([3]; A. niger, 72 hours): 1.00; SI (synergy index, Qa/QA+Qb/QB) ([3]; A. niger, 96 hours): 1.00; MIC ([3]; ATCC16404, 72 h): 300 µg/mL; MIC ([3]; ATCC16404, 96 h): 300 µg/mL; MIC ([3]; ATCC16404, 168 h): 300 µg/mL; SI (synergy index, Qa/QA+Qb/QB) ([4]; S. aureus, 24 hours): 1.00; MIC ([4]; ATCC6538, 24 h, read-out: MIC of the microbicide acting alone (QA or QB), S. aureus, 24 hours, M9GY medium, 30° C.): 40 µg/mL; MIC [4, 9]: 60 µg/mL
O=C(O)c1ccccc1 [benzoic acid] | – | – | – | – | 1.00 | – | 1.00 | – | 1.00 | 1.00 | MIC ([1]; ATCC9027, 72 h): 6000 µg/mL; MIC ([2]; ATCC10231, 48 h): 5000 µg/mL; MIC ([3]; ATCC16404, 168 h): 10000 µg/mL; MIC [4, 9]: 6000 µg/mL
OCc1ccccc1 [benzyl alcohol] | 1.00 | 6000 | – | – | – | – | 1.00 | 8000 | – | 1.00 | MIC ([2]; ATCC10231, C. albicans, 48 hours, PDB medium, 25° C.): 6000 µg/mL; SI (synergy index, Qa/QA+Qb/QB) ([3]; A. niger, 72 hours): 1.00; MIC ([3]; ATCC16404, A. niger, 72 hours, PDB medium, 25° C.): 8000 µg/mL
O=C(O)CC(O)(CC(=O)O)C(=O)O [citric acid] | – | – | – | 10000 | – | 10000 | – | – | – | – | MIC [1, 10]: 6000 µg/mL; MIC [4, 11]: 4000 µg/mL
CC(C)(C)C(=O)C(Oc1ccc(Cl)cc1)n1ccnc1 (stereo not shown) [climbazole] | – | – | 1.00 | 300 | – | – | – | – | – | – | SI (synergy index, Qa/QA+Qb/QB) ([4]; S. aureus, 24 hours): 1.00; MIC [4, 11]: 2000 µg/mL
C/C=C/C=C/C(=O)O [sorbic acid] | – | – | 1.00 | 400 | – | – | 1.00 | 10000 | – | – | SI (synergy index, Qa/QA+Qb/QB) ([1]; P. aeruginosa, 48 hours): 1.00; MIC [1, 10]: 10000 µg/mL; SI (synergy index, Qa/QA+Qb/QB) ([3]; A. niger, 96 hours): 1.00; MIC ([3]; ATCC16404, A. niger, 96 hours, PDB medium, 25° C.): 4000 µg/mL
zinc pyrithione | – | – | – | – | 1.00 | – | 1.00 | – | 1.00 | 1.00 | MIC of the microbicide acting alone (QA or QB) ([1]; P. aeruginosa, 72 hours, M9GY medium, 30° C.): 200 ppm; MIC of the microbicide acting alone (QA or QB) ([2]; C. albicans, 48 hours, PDB medium, 25° C.): 80 ppm; MIC of the microbicide acting alone (QA or QB) ([3]; A. niger, 1 week, PDB medium, 25° C.): 80 ppm; MIC of the microbicide acting alone (QA or QB) ([4]; S. aureus, 72 hours, M9GY medium, 30° C.): 20 ppm
